From US10640506B2, “Cyclobutyl substituted pyrrolopyridine and pyrrolopyrimidines derivatives as JAK inhibitors” (Incyte Corporation, priority 2010, dated 2020) come the findings set out here.

Assay [1] addresses human JAK1 (a.a. 837-1142) (Homo sapiens, UniProt P23458). Nature of the assay: In vitro JAK kinase assay (HTRF, phosphorylation of biotinylated peptide), JAK1. To be noted: Table F; 1 mM ATP. In kind it is biochemical. An outline of the steps:
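His-tagged human JAK1 catalytic domain (a.a. 837-1142), baculovirus/insect-cell expressed, phosphorylates a biotinylated peptide for 1 h at room temperature. Reaction stopped with EDTA; product detected by HTRF (SA-APC, Eu-Py20, 40 min binding). IC50 reported as ranges.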

The target in the next assay is T1, JAK2 (a.a. 828-1132) (Homo sapiens, UniProt O60674).
T1 construct: JAK2 (a.a. 828-1132); His tag (N)
T1 sequence (O60674 828-1132): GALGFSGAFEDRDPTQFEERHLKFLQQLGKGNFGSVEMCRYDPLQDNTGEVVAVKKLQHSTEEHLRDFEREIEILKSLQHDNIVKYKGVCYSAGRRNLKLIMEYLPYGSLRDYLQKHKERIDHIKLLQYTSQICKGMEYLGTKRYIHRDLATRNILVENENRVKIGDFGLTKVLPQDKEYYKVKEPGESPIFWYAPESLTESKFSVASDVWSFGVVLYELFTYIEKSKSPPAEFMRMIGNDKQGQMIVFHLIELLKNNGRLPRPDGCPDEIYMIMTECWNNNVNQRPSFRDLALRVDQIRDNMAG
The experiment in a line: In vitro JAK kinase assay (HTRF, phosphorylation of biotinylated peptide), JAK2. In kind it is biochemical. As to conditions: Table F; 1 mM ATP. In short, it runs like this: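 His-tagged catalytic domains of human JAK1 (a.a. 837-1142) and JAK2 (a.a. 828-1132), baculovirus-expressed, phosphorylate a biotinylated peptide for 1 hour at room temperature. Stopped with EDTA; detected by HTRF using SA-APC and Eu-Py20 antibody after 40 min binding; values binned as ranges.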
(In general: Time-resolved FRET reads energy transfer from a long-lived donor to a nearby acceptor.)

The structures appear in SMILES notation. pIC50: −log10 of the molar value.

Chain of human JAK1 (a.a. 837-1142) (P23458 849-1154): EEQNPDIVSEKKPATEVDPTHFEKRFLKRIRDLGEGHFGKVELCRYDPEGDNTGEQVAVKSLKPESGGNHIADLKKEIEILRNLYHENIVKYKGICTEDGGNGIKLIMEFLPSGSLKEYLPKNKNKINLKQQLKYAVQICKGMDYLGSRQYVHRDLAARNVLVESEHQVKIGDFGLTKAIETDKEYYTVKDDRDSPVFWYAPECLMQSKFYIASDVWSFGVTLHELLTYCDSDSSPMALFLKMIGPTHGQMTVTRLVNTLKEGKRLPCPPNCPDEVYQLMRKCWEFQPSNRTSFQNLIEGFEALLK

Consider `CN(C)Cc1cc(Cl)nc(OC2CCN([C@H]3C[C@](CC#N)(n4cc(-c5ncnc6[nH]ccc56)cn4)C3)CC2)c1` [Example 141, {trans-3-[4-({6-chloro-4-[(dimethylamino)methyl]pyridin-2-yl}oxy)piperidin-1-yl]-1-[4-(7H-pyrrolo[2,3-d]pyrimidin-4-yl)-1H-pyrazol-1-yl]cyclobutyl}acetonitrile], for which the pIC50 (in assay [1]; at JAK2 (a.a. 828-1132)) was above 8.00 each time.

Consider `CN(C)Cc1cc(OC2CCN([C@H]3C[C@](CC#N)(n4cc(-c5ncnc6[nH]ccc56)cn4)C3)CC2)nc(C(F)(F)F)n1` [Example 142, {trans-3-(4-{[6-[(dimethylamino)methyl]-2-(trifluoromethyl)pyrimidin-4-yl]oxy}piperidin-1-yl)-1-[4-(7H-pyrrolo[2,3-d]pyrimidin-4-yl)-1H-pyrazol-1-yl]cyclobutyl}acetonitrile], for which the pIC50 in assay [1] was 7.60 to 8.00; against JAK2 (a.a. 828-1132), below 7.00.

As for `CCNCc1cc(OC2CCN([C@H]3C[C@](CC#N)(n4cc(-c5ncnc6[nH]ccc56)cn4)C3)CC2)nc(C(F)(F)F)n1` [Example 143, {trans-3-(4-{[6-[(ethylamino)methyl]-2-(trifluoromethyl)pyrimidin-4-yl]oxy}piperidin-1-yl)-1-[4-(7H-pyrrolo[2,3-d]pyrimidin-4-yl)-1H-pyrazol-1-yl]cyclobutyl}acetonitrile], the pIC50 in assay [1] was 7.60 to 8.00; against JAK2 (a.a. 828-1132), 7.00 to 7.60.

`N#CC[C@]1(n2cc(-c3ncnc4[nH]ccc34)cn2)C[C@H](N2CCC(Oc3cc(CN4CC(O)C4)nc(C(F)(F)F)n3)CC2)C1` [Example 144, {trans-3-(4-{[6-[(3-hydroxyazetidin-1-yl)methyl]-2-(trifluoromethyl)pyrimidin-4-yl]oxy}piperidin-1-yl)-1-[4-(7H-pyrrolo[2,3-d]pyrimidin-4-yl)-1H-pyrazol-1-yl]cyclobutyl}acetonitrile]: the negative logarithm of the IC50 (pIC50) is 7.60 to 8.00 in assay [1] and below 7.00 against JAK2 (a.a. 828-1132).

For `Cc1cc(OC2CCN([C@H]3C[C@](CC#N)(n4cc(-c5ncnc6[nH]ccc56)cn4)C3)CC2)nc(C(F)(F)F)n1` [Example 145, {trans-3-(4-{[6-methyl-2-(trifluoromethyl)pyrimidin-4-yl]oxy}piperidin-1-yl)-1-[4-(7H-pyrrolo[2,3-d]pyrimidin-4-yl)-1H-pyrazol-1-yl]cyclobutyl}acetonitrile], the pIC50 is 7.60 to 8.00 in assay [1] and below 7.00 against JAK2 (a.a. 828-1132).

Consider `N#CC[C@]1(n2cc(-c3ncnc4[nH]ccc34)cn2)C[C@H](N2CCC(Oc3cc(CO)nc(C(F)(F)F)n3)CC2)C1` [Example 146, {trans-3-(4-{[6-(hydroxymethyl)-2-(trifluoromethyl)pyrimidin-4-yl]oxy}piperidin-1-yl)-1-[4-(7H-pyrrolo[2,3-d]pyrimidin-4-yl)-1H-pyrazol-1-yl]cyclobutyl}acetonitrile], for which the pIC50 in assay [1] is 7.60 to 8.00; against JAK2 (a.a. 828-1132), below 7.00.

Turning to `N#CC[C@]1(n2cc(-c3ncnc4[nH]ccc34)cn2)C[C@H](N2CCC(Oc3cc(CN)nc(C(F)(F)F)n3)CC2)C1` [Example 147, {trans-3-(4-{[6-(aminomethyl)-2-(trifluoromethyl)pyrimidin-4-yl]oxy}piperidin-1-yl)-1-[4-(7H-pyrrolo[2,3-d]pyrimidin-4-yl)-1H-pyrazol-1-yl]cyclobutyl}acetonitrile], the negative-log IC50 (pIC50) in assay [1] is 7.60 to 8.00; against JAK2 (a.a. 828-1132), 7.00 to 7.60.

Take `N#CC[C@]1(n2cc(-c3ncnc4[nH]ccc34)cn2)C[C@H](N2CCC(Oc3cc(CN4CCCC4)nc(C(F)(F)F)n3)CC2)C1` [Example 148, {trans-3-(4-{[6-(pyrrolidin-1-ylmethyl)-2-(trifluoromethyl)pyrimidin-4-yl]oxy}piperidin-1-yl)-1-[4-(7H-pyrrolo[2,3-d]pyrimidin-4-yl)-1H-pyrazol-1-yl]cyclobutyl}acetonitrile]: the values for the pIC50 (in assay [1]; against JAK2 (a.a. 828-1132)) were 7.60 to 8.00 and below 7.00, respectively.

Consider `N#CC[C@]1(n2cc(-c3ncnc4[nH]ccc34)cn2)C[C@H](N2CCC(Oc3cc(CN4CCOCC4)nc(C(F)(F)F)n3)CC2)C1` [Example 149, {trans-3-(4-{[6-(morpholin-4-ylmethyl)-2-(trifluoromethyl)pyrimidin-4-yl]oxy}piperidin-1-yl)-1-[4-(7H-pyrrolo[2,3-d]pyrimidin-4-yl)-1H-pyrazol-1-yl]cyclobutyl}acetonitrile], for which the pIC50 in assay [1] is 7.00 to 7.60; against JAK2 (a.a. 828-1132) it was below 7.00.

`N#CC[C@]1(n2cc(-c3ncnc4[nH]ccc34)cn2)C[C@H](N2CCC(Oc3cc(CN4CCC4)nc(C(F)(F)F)n3)CC2)C1` [Example 150, {cis-3-(4-{[6-(azetidin-1-ylmethyl)-2-(trifluoromethyl)pyrimidin-4-yl]oxy}piperidin-1-yl)-1-[4-(7H-pyrrolo[2,3-d]pyrimidin-4-yl)-1H-pyrazol-1-yl]cyclobutyl}acetonitrile]: the negative-log IC50 (pIC50) was 7.60 to 8.00 in assay [1] and below 7.00 on JAK2 (a.a. 828-1132).

In the case of `Cc1cc(OC2CCN([C@H]3C[C@@](CC#N)(n4cc(-c5ncnc6[nH]ccc56)cn4)C3)CC2)nc(C(F)(F)F)c1` [Example 151, {trans-3-(4-{[4-methyl-6-(trifluoromethyl)pyridin-2-yl]oxy}piperidin-1-yl)-1-[4-(7H-pyrrolo[2,3-d]pyrimidin-4-yl)-1H-pyrazol-1-yl]cyclobutyl}acetonitrile], the results for the pIC50 (in assay [1]; against JAK2 (a.a. 828-1132)) were above 8.00 and 7.00 to 7.60, respectively.

For `N#CC[C@]1(n2cc(-c3ncnc4[nH]ccc34)cn2)C[C@H](N2CCN(C(=O)NC(C(F)(F)F)C(F)(F)F)CC2)C1` [Example 152, 4-{trans-3-(Cyanomethyl)-3-[4-(7H-pyrrolo[2,3-d]pyrimidin-4-yl)-1H-pyrazol-1-yl]cyclobutyl}-N-[2,2,2-trifluoro-1-(trifluoromethyl)ethyl]piperazine-1-carboxamide], the pIC50 in assay [1] is above 8.00; at JAK2 (a.a. 828-1132) it was below 7.00.

On to `CC(C)(CO)NCc1cc(OC2CCN([C@H]3C[C@](CC#N)(n4cc(-c5ncnc6[nH]ccc56)cn4)C3)CC2)nc(C(F)(F)F)c1` [Example 153, {trans-3-(4-{[4-{[(2-hydroxy-1,1-dimethylethyl)amino]methyl}-6-(trifluoromethyl)pyridin-2-yl]oxy}piperidin-1-yl)-1-[4-(7H-pyrrolo[2,3-d]pyrimidin-4-yl)-1H-pyrazol-1-yl]cyclobutyl}acetonitrile], for which the results for the pIC50 (in assay [1]; against JAK2 (a.a. 828-1132)) were above 8.00 and 7.00 to 7.60, respectively.

Regarding `N#CC[C@]1(n2cc(-c3ncnc4[nH]ccc34)cn2)C[C@H](N2CCC(Oc3cc(CNCCO)cc(C(F)(F)F)n3)CC2)C1` [Example 154, {trans-3-(4-{[4-{[(2-hydroxyethyl)amino]methyl}-6-(trifluoromethyl)pyridin-2-yl]oxy}piperidin-1-yl)-1-[4-(7H-pyrrolo[2,3-d]pyrimidin-4-yl)-1H-pyrazol-1-yl]cyclobutyl}acetonitrile], the pIC50 is above 8.00 in assay [1] and 7.00 to 7.60 against JAK2 (a.a. 828-1132).

In the case of `N#CC[C@]1(n2cc(-c3ncnc4[nH]ccc34)cn2)C[C@H](N2CCC(Oc3cc(CNCCCO)cc(C(F)(F)F)n3)CC2)C1` [Example 155, {trans-3-(4-{[4-{[(3-hydroxypropyl)amino]methyl}-6-(trifluoromethyl)pyridin-2-yl]oxy}piperidin-1-yl)-1-[4-(7H-pyrrolo[2,3-d]pyrimidin-4-yl)-1H-pyrazol-1-yl]cyclobutyl}acetonitrile], the figures for the pIC50 (in assay [1]; at JAK2 (a.a. 828-1132)) were above 8.00 and 7.00 to 7.60, respectively.

Take `N#CC[C@]1(n2cc(-c3ncnc4[nH]ccc34)cn2)C[C@H](N2CCC(Oc3cc(CN4CCC4)cc(C(F)(F)F)n3)CC2)C1` [Example 156, {trans-3-(4-{[4-(azetidin-1-ylmethyl)-6-(trifluoromethyl)pyridin-2-yl]oxy}piperidin-1-yl)-1-[4-(7H-pyrrolo[2,3-d]pyrimidin-4-yl)-1H-pyrazol-1-yl]cyclobutyl}acetonitrile]: the pIC50 in assay [1] is above 8.00; on JAK2 (a.a. 828-1132), 7.00 to 7.60.

As to `N#CC[C@]1(n2cc(-c3ncnc4[nH]ccc34)cn2)C[C@H](N2CCC(Oc3cc(CN4CC(O)C4)cc(C(F)(F)F)n3)CC2)C1` [Example 157, {trans-3-(4-{[4-[(3-hydroxyazetidin-1-yl)methyl]-6-(trifluoromethyl)pyridin-2-yl]oxy}piperidin-1-yl)-1-[4-(7H-pyrrolo[2,3-d]pyrimidin-4-yl)-1H-pyrazol-1-yl]cyclobutyl}acetonitrile], the pIC50 in assay [1] is above 8.00; against JAK2 (a.a. 828-1132) it was 7.00 to 7.60.

In the case of `N#CC[C@]1(n2cc(-c3ncnc4[nH]ccc34)cn2)C[C@H](N2CCC(Oc3cc(CN4CCCC4)cc(C(F)(F)F)n3)CC2)C1` [Example 158, {trans-3-(4-{[4-(pyrrolidin-1-ylmethyl)-6-(trifluoromethyl)pyridin-2-yl]oxy}piperidin-1-yl)-1-[4-(7H-pyrrolo[2,3-d]pyrimidin-4-yl)-1H-pyrazol-1-yl]cyclobutyl}acetonitrile], the figures for the pIC50 (in assay [1]; against JAK2 (a.a. 828-1132)) were above 8.00 and 7.00 to 7.60, respectively.

Turning to `N#CC[C@]1(n2cc(-c3ncnc4[nH]ccc34)cn2)C[C@H](N2CCC(Oc3cc(CN4CCOCC4)cc(C(F)(F)F)n3)CC2)C1` [Example 159, {trans-3-(4-{[4-(morpholin-4-ylmethyl)-6-(trifluoromethyl)pyridin-2-yl]oxy}piperidin-1-yl)-1-[4-(7H-pyrrolo[2,3-d]pyrimidin-4-yl)-1H-pyrazol-1-yl]cyclobutyl}acetonitrile], the pIC50 was above 8.00 in assay [1] and 7.00 to 7.60 at JAK2 (a.a. 828-1132).

On to `N#CC[C@]1(n2cc(-c3ncnc4[nH]ccc34)cn2)C[C@H](N2CCC(Oc3cc(CN4CCC(F)(F)C4)cc(C(F)(F)F)n3)CC2)C1` [Example 160, {trans-3-(4-{[4-[(3,3-difluoropyrrolidin-1-yl)methyl]-6-(trifluoromethyl)pyridin-2-yl]oxy}piperidin-1-yl)-1-[4-(7H-pyrrolo[2,3-d]pyrimidin-4-yl)-1H-pyrazol-1-yl]cyclobutyl}acetonitrile], for which the results for the pIC50 (in assay [1]; against JAK2 (a.a. 828-1132)) were 7.60 to 8.00 and below 7.00, respectively.

By pIC50 is commonly meant −log10 of the IC50, conventionally taken in molar units. Higher therefore signals a small IC50.
